Three compounds from ChEMBL document CHEMBL3526000 (Drug Metab Dispos, 2012) can be followed below.

What all share (type): ADME
For series [1], the target named is T1, UDP-glucuronosyltransferase 1A4 (Homo sapiens, UniProt P22310).
T1 sequence (P22310 whole entry): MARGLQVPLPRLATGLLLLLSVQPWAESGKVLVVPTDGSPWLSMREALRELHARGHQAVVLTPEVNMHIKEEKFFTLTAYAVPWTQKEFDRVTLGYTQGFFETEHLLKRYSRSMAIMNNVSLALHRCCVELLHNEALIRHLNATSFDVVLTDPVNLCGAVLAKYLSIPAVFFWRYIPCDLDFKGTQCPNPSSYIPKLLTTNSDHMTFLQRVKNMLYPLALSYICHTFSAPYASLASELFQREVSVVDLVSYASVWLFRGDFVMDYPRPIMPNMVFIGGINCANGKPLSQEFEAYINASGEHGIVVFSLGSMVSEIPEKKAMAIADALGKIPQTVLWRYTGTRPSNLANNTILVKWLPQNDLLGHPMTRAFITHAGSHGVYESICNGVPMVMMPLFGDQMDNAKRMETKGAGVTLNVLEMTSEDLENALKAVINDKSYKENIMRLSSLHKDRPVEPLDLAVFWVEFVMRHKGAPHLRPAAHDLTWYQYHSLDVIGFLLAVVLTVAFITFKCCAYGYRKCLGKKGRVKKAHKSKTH
The series is described as follows: Drug metabolism assessed as UGT1A4 activity in human liver microsome assessed as of N-glucuronidation at 25 to 200 uM incubated for 60 mins by LC-MS/MS analysis. Particulars: microsomes, 1 h.

The test system of series [2] is Liver microsome. The series is described as follows: Drug metabolism assessed as Sprague-Dawley rat liver microsomes assessed as compound formation treated with at 100 uM haloperidol by LC-MS/MS analysis.
The target of series [3] is T2, UDP-glucuronosyltransferase 2B7 (Homo sapiens, UniProt P16662).
T2 sequence (P16662 whole entry): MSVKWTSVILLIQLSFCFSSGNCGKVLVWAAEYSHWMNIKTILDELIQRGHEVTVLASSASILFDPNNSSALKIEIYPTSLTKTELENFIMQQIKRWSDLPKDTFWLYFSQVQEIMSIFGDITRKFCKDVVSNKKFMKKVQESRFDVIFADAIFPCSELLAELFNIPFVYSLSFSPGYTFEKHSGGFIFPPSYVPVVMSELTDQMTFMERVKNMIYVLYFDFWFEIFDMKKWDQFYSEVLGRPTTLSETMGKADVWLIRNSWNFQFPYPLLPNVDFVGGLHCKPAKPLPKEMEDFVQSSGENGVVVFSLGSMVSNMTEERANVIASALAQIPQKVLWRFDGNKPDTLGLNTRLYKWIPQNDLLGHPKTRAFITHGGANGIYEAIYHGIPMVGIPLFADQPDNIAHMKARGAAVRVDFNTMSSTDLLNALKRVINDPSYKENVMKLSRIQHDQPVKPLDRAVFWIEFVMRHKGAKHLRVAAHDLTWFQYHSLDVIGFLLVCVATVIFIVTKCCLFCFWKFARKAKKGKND
The series is described as follows: Drug metabolism assessed as UGT2B7 activity in human liver microsome assessed as of O-glucuronidation at 25 to 200 uM incubated for 60 mins by LC-MS/MS analysis. To be noted: microsomes, 1 h.

As to `CN1CCN(CCCN2c3ccccc3Sc3ccc(C(F)(F)F)cc32)CC1.Cl`, the Drug metabolism in series [1] is recorded as 0.26 nmol/min/mg. As to `O=C(CCCN1CCC(O[C@@H]2O[C@H](C(=O)O)[C@@H](O)[C@H](O)[C@H]2O)(c2ccc(Cl)cc2)CC1)c1ccc(F)cc1`, the Drug metabolism result in series [2] is recorded as “metabolite_detected”. Regarding `Cc1cn([C@H]2C[C@H](N=[N+]=[N-])[C@@H](CO)O2)c(=O)[nH]c1=O` [ZIDOVUDINE], in series [3], the Drug metabolism stood at 0.14 nmol/min/mg.
